# Measurements: US9260384B2, “Urea compounds and use thereof for inhibiting apoptosis” (Chinese PLA General Hospital, priority 2010, dated 2016)
# Columns and labels:
# primary cardiomyocytes = assay: Measurement of cell inhibition rate (MTT) on normal primary cardiomyocytes; type: cell-based, neonatal Wistar rats
# Description: The isolation and culture of cardiomyocytes were performed by referring to the differential adhesion method (Kreider, A. Messing, H. Doan, S. U. Kim, R. P. Lisak and D. E. Pleasure, Enrichment of Schwann cell cultures from neonatal rat sciatic nerve by differential adhesion, Brain Res 2 (1981), pp. 433-444). […]
# The isolated primary culture of cardiomyocytes was inoculated in an amount of 10^4 cells per well to a 96-well plate, and the volume of each well was 100 ul (marginal wells were filled with sterile PBS). […] The optical density (OD) value of each well was measured at wavelength of 550 nm by enzyme-linked immunoassay instrument, and each well was repeatedly measured for 5 times and the results were recorded.
# [1] = test system: TG-induced cardiomyocytes apoptosis; assay: Protection against TG-induced cardiomyocyte apoptosis (MTT); type: cell-based, Wistar sucking mice
# Description: The isolation and culture of cardiomyocytes were performed by referring to the differential adhesion method (Kreider, A. Messing, H. Doan, S. U. Kim, R. P. Lisak and D. E. Pleasure, Enrichment of Schwann cell cultures from neonatal rat sciatic nerve by differential adhesion, Brain Res 2 (1981), pp. 433-444). Wistar sucking mice newborn within 24 h were used, sterilized at skin of ventrum with iodine tincture and ethanol, subjected to thoracotomy using scissors at subxiphoid median line with a deviation to left, heart was taken out after slant thoracotomy and placed in PBS precooled with ice; the heart was softly blown and beaten with 0.01M PBS to remove blood cells and other tissues, then cut into pieces with 0.5 mm^3 size, washed with 0.01 M PBS repeatedly for 2-3 times; the pieces were placed in conical flask, added with 4 ml of 0.125% pancretin, 1 ml of 0.1% collagenase II (final concentrations separately being 0.1% and 0.02%), shaken in 37° C. water bath for 10 min, the supernatant was discarded; then 4 ml of 0.125% pancretin and 1 ml of 0.1% collagenase II again, shaken in 37° C. water bath for digestion for 10 min, the supernatant was sucked and transferred to a centrifuge tube, and the supernatant was added with DMEM containing 10% FBS to terminate digestion; the step of shaking and digestion in water bath was repeated for 3-4 times, until the tissue pieces were completely digested; the collected cell suspension was centrifuged under 1000 rpm for 10 min, the supernatant was removed, then a culture medium was added for resuspension; the resuspended cells were inoculated in a cell culture flask, placed in CO2 incubator at 37° C. for incubation for 1.5 h, then the culture medium was sucked out, countered under microscope, then DMEM culture medium containing 10% FBS was used to adjust cell density, inoculated in an amount of 1×10^4 to a 96-well plate, placed in 5% CO2 incubator at 37° C. for 24 h, then half medium was replaced, a culture medium containing 0.1% Brdu was supplementally added; then the medium was replaced once per 48 h, and primary cardiomyocytes were obtained after 4 days of cultivation.
# The isolated primary culture of cardiomyocytes was inoculated in an amount of 10^4 cells per well to a 96-well plate, and the volume of each well was 100 ul (marginal wells were filled with sterile PBS). […] The optical density (OD) value of each well was measured at wavelength of 550 nm by enzyme-linked immunoassay instrument, and each well was repeatedly measured for 5 times and the results were recorded. […]
structure (smiles),measurement,setting,value
"O=C(/C=C/c1ccccc1)NC(NC(=O)Nc1cccc2cccnc12)C(Cl)(Cl)Cl (stereo not shown) [Example 1, (2E)-3-phenyl-N-[1-(8-quinolylamino)formylamino-2,2,2-trichloroethyl]-2-acrylamide]",inhibition at 30 µM,"primary cardiomyocytes; Cardiomyocyte, 30 μM compound, 48 h, MTT, cell survival rate = 1 − cell inhibition rate",9.57 ± 1.62%
same,inhibition at 300 µM,"primary cardiomyocytes; Cardiomyocyte, 300 μM compound, 48 h, MTT, cell survival rate = 1 − cell inhibition rate",7.78 ± 3.42%
same,effect on survival rate of normal cardiomyocytes,primary cardiomyocytes; concentration within 300 μM,no effect
"O=C(/C=C/c1ccccc1)NC(NC(=O)Nc1cccc2cccnc12)C(Cl)(Cl)Cl (stereo not shown) [Example 5, (2E)-3-phenyl-N-[1-(8-quinolylamino)formylamino-2,2,2-trichloroethyl]-2-acrylamide]",Cardiomyocyte survival rate (%),"[1]; TG 0.4 uM + compound 0.3 μM, pretreatment 30 min before TG",79.3 ± 4.6%
same,Cardiomyocyte survival rate (%),"[1]; TG 0.4 uM + compound 1 μM, pretreatment 30 min before TG",83.8 ± 8.3%
same,Cardiomyocyte survival rate (%),"[1]; TG 0.4 uM + compound 3 μM, pretreatment 30 min before TG",84.2 ± 1.1%
"C/C=C(/C)C(=O)O[C@H]1C(C)=C2[C@H]([C@@H]1OC(=O)CCCCCCC)[C@@](C)(OC(C)=O)C[C@H](OC(=O)CCC)[C@@]1(O)[C@H]2OC(=O)[C@@]1(C)O [TG, thapsigargin, reference compound]",Cardiomyocyte survival rate (%),[1]; TG alone 0.4 uM (apoptosis inducer),59 ± 1.1%
